# Legend:
# HDAC 1 = HDAC 1 (Homo sapiens, UniProt Q13547); assay: HDAC 1 inhibition assay with about 3 hours enzyme/compound preincubation (fluorophore/quencher peptide substrate); type: biochemical; conditions: 3-hour preincubation of enzyme with compound; read-out: HDAC 1 inhibitory activity (IC50 [μM]) (3-hour preincubation)
# Protocol: HDAC inhibitory activity of the compound of Example 1 was measured by two types of assays in which HDAC 1 was used as a target molecule. The first assay was carried out without preincubation after addition of the enzyme. The test compound was suspended in and titrated in dmso. It was then spotted into a 384-well test plate. The enzyme, HDAC 1, was diluted in assay buffer containing 25 mM Tris-HCl (pH 8.0), 137 mM NaCl, 2.7 mM KCl, and 0.01% Tween-20 and added to the pre-spotted compound. The peptide substrate containing a fluorophore/quencher pair was diluted in the same assay buffer and added to the compound/enzyme mix initiating the reaction. The reaction incubated at room temperature for about 45 minutes. A concentrated developer solution was diluted in the assay buffer, and added to the reaction. The reaction was incubated at room temperature for about 15 minutes and relative fluorescence was read on an instrument reader.
# The second assay is similar to the first assay described above, except that preincubation is carried out for about 3 hours after the enzyme is introduced. The test compound was suspended in, and titrated in DMSO. It was then spotted into a 384-well test plate. The enzyme, HDAC 1, was diluted in the same assay buffer as used in the previous assay and added to the pre-spotted compound. The enzyme/compound mix was incubated at room temperature for about 3 hours. The peptide substrate containing a fluorophore/quencher pair was diluted in the assay buffer and added to the compound/enzyme mix initiating the reaction. The reaction incubated at room temperature for 45 minutes. A concentrated developer solution was diluted in the assay buffer, and added to the reaction. The reaction was incubated at room temperature for about 15 minutes and relative fluorescence was read on an instrument reader.
# CDK2 = CDK2 (Homo sapiens, UniProt P24941); assay: CDK2 inhibition; type: biochemical
# HDAC 1, sequence (Q13547 whole entry, species assumed): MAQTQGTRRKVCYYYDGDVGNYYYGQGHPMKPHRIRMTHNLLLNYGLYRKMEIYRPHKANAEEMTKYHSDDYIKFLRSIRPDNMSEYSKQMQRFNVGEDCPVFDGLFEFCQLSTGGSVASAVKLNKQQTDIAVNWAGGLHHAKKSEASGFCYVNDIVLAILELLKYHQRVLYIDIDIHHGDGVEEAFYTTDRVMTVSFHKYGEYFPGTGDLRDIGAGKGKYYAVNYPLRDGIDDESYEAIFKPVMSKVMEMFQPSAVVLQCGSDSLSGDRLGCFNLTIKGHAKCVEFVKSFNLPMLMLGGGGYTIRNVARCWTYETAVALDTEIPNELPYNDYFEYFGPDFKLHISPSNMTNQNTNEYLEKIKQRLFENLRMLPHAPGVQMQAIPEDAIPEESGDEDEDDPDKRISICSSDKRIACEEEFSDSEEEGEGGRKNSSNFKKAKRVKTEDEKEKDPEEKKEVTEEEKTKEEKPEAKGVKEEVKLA
IC50 (HDAC 1) [µM],IC50 (CDK2) [µM],Compound
0.141,0.15,"Cc1nc2ccccn2c1-c1ccnc(Nc2ccc(C(=O)NO)cn2)c1 [Example 69, N-hydroxy-6-(4-(2-methylimidazo[1,2-a]pyridin-3-yl)pyridin-2-ylamino)nicotinamide]"
1.8,0.56,"Cc1nc2ccccn2c1-c1ccnc(Nc2nc(C(=O)NO)cs2)n1 [Example 61, N-hydroxy-2-(4-(2-methylimidazo[1,2-a]pyridin-3-yl)pyrimidin-2-ylamino)thiazole-4-carboxamide]"
0.243,0.4,"COCCOc1ccn2c(-c3ccnc(Nc4ccc(C(=O)Nc5ccccc5N)cc4)n3)c(C)nc2c1 [Example 31, N-(2-Amino-phenyl)-4-{4-[7-(2-methoxy-ethoxy)-2-methyl-imidazo[1,2-a]pyridin-3-yl]-pyrimidin-2-ylamino}-benzamide]"
0.126,0.22,"Cc1nc2ccccn2c1-c1ccnc(Nc2ccc(C(=O)NO)cc2F)n1 [Example 33, 3-Fluoro-N-hydroxy-4-[4-(2-methyl-imidazo[1,2-a]pyridin-3-yl)-pyrimidin-2-ylamino]-benzamide]"
> 10,0.53,"COC(=O)c1ccn2c(-c3ccnc(Nc4ccc(C(=O)Nc5ccccc5N)cc4)n3)c(C)nc2c1 [Example 26, Methyl 3-(2-(4-(2-aminophenylcarbamoyl)phenylamino)pyrimidin-4-yl)-2-methylimidazo[1,2-a]pyridine-7-carboxylate]"
0.388,0.29,"COc1ccc2nc(C)c(-c3ccnc(Nc4ccc(C(=O)Nc5ccccc5N)cc4)n3)n2c1 [Example 42, N-(2-Amino-phenyl)-4-[4-(6-methoxy-2-methyl-imidazo[1,2-a]pyridin-3-yl)-pyrimidin-2-ylamino]-benzamide]"
0.118,1.07,"Cc1nc2cc(OCCN(C)C)ccn2c1-c1ccnc(Nc2ccc(C(=O)Nc3ccccc3N)cc2)n1 [Example 30, N-(2-Amino-phenyl)-4-{4-[7-(2-dimethylamino-ethoxy)-2-methyl-imidazo[1,2-a]pyridin-3-yl]-pyrimidin-2-ylamino}-benzamide]"
0.185,0.026,"Cc1nc2ccccn2c1-c1ccnc(Nc2csc(C(=O)NO)c2)n1 [Example 71, N-hydroxy-4-(4-(2-methylimidazo[1,2-a]pyridin-3-yl)pyrimidin-2-ylamino)thiophene-2-carboxamide]"
0.06,0.14,"COc1ccn2c(-c3ccnc(Nc4ccc(C(=O)Nc5ccccc5N)cc4)n3)c(C(F)(F)F)nc2c1 [Example 48, N-(2-Amino-phenyl)-4-[4-(7-methoxy-2-trifluoromethyl-imidazo[1,2-a]pyridin-3-yl)-pyrimidin-2-ylamino]-benzamide]"
0.017,0.069,"O=C(NO)c1cccc(Nc2nccc(-c3cnc4ccccn34)n2)c1 [Example 7, N-Hydroxy-3-(4-imidazo[1,2-a]pyridin-3-yl-pyrimidin-2-ylamino)-benzamide]"
0.347,7.1,"Cc1nc2ccc(C(=O)NCCN3CCOCC3)cn2c1-c1ccnc(Nc2ccc(C(=O)Nc3ccccc3N)cc2)n1 [Example 40, 3-(2-(4-(2-aminophenylcarbamoyl)phenylamino)pyrimidin-4-yl)-2-methyl-N-(2-morpholinoethyl)imidazo[1,2-a]pyridine-6-carboxamide]"
0.021,3.6,"Cc1nc2ccccn2c1-c1ccnc(Nc2ccc(C(=O)NO)cc2)c1 [Example 53, N-Hydroxy-4-[4-(2-methyl-imidazo[1,2-a]pyridin-3-yl)-pyridin-2-ylamino]-benzamide]"
0.224,3.53,"Cc1nc2ccccn2c1-c1ccnc(Nc2ncc(C(=O)Nc3ccccc3N)s2)n1 [Example 63, N-(2-aminophenyl)-2-(4-(2-methylimidazo[1,2-a]pyridin-3-yl)pyrimidin-2-ylamino)thiazole-5-carboxamide]"
0.0818,0.18,"O=C(NO)c1ccc(Nc2nccc(-c3c(C(F)(F)F)nc4ccccn34)n2)cc1 [Example 15, N-Hydroxy-4-[4-(2-trifluoromethyl-imidazo[1,2-a]pyridin-3-yl)-pyrimidin-2-ylamino]-benzamide]"
0.094,0.52,"Cc1nc2ccccn2c1-c1ccnc(Nc2ccc(C(=O)NO)cn2)n1 [Example 64, N-hydroxy-6-(4-(2-methylimidazo[1,2-a]pyridin-3-yl)pyrimidin-2-ylamino)nicotinamide]"
0.067,0.044,"Cc1nc2ccccn2c1-c1ccnc(Nc2ccc(C(=O)NO)cc2)n1 [Example 1, N-Hydroxy-4-(4-(2-methylimidazo[1,2-a]pyridin-3-yl)-pyrimidin-2-ylamino)-benzamide]"
0.877,4.34,"COCCOc1ccc2nc(C)c(-c3ccnc(Nc4ccc(C(=O)Nc5ccccc5N)cc4)n3)n2c1 [Example 41, N-(2-Amino-phenyl)-4-{4-[6-(2-methoxy-ethoxy)-2-methyl-imidazo[1,2-a]pyridin-3-yl]-pyrimidin-2-ylamino}-benzamide]"
0.13,1.61,"Cc1nc2cc(CN(C)C)ccn2c1-c1ccnc(Nc2ccc(C(=O)Nc3ccccc3N)cc2)n1 [Example 46, N-(2-Amino-phenyl)-4-[4-(7-dimethylaminomethyl-2-methyl-imidazo[1,2-a]pyridin-3-yl)-pyrimidin-2-ylamino]-benzamide]"
0.18,0.5,"Cc1nc2cc(C#N)ccn2c1-c1ccnc(Nc2ccc(C(=O)Nc3ccccc3N)cc2)n1 [Example 24, N-(2-Amino-phenyl)-4-[4-(7-cyano-2-methyl-imidazo[1,2-a]pyridin-3-yl)-pyrimidin-2-ylamino]-benzamide]"
0.199,0.06,"COc1ccn2c(-c3ccnc(Nc4ccc(C(=O)NO)cc4)n3)c(C(F)(F)F)nc2c1 [Example 49, N-Hydroxy-4-[4-(7-methoxy-2-trifluoromethyl-imidazo[1,2-a]pyridin-3-yl)-pyrimidin-2-ylamino]-benzamide]"
0.128,1.03,"Cc1nc2cc(C(=O)NCCN3CCOCC3)ccn2c1-c1ccnc(Nc2ccc(C(=O)Nc3ccccc3N)cc2)n1 [Example 25, 3-(2-(4-(2-aminophenylcarbamoyl)phenylamino)pyrimidin-4-yl)-2-methyl-N-(2-morpholinoethyl)imidazo[1,2-a]pyridine-7-carboxamide]"
> 10,0.32,"Cc1nc2ccc(C(F)(F)F)cn2c1-c1ccnc(Nc2ccc(C(=O)Nc3ccccc3N)cc2)n1 [Example 12, N-(2-Amino-phenyl)-4-[4-(2-methyl-6-trifluoromethyl-imidazo[1,2-a]pyridin-3-yl)-pyrimidin-2-ylamino]-benzamide]"
0.14,0.08,"COc1ccc2nc(C)c(-c3ccnc(Nc4ccc(C(=O)NO)cc4)n3)n2c1 [Example 43, N-Hydroxy-4-[4-(6-methoxy-2-methyl-imidazo[1,2-a]pyridin-3-yl)-pyrimidin-2-ylamino]-benzamide]"
0.04,0.04,"COc1ccn2c(-c3ccnc(Nc4ccc(C(=O)NO)cc4)n3)c(C)nc2c1 [Example 13, N-Hydroxy-4-[4-(7-methoxy-2-methyl-imidazo[1,2-a]pyridin-3-yl)-pyrimidin-2-ylamino]-benzamide]"
0.147,2.87,"O=C(NO)c1ccc(N(CC(F)(F)F)c2nccc(-c3cnc4ccccn34)n2)cc1 [Example 57, N-Hydroxy-4-[(4-imidazo[1,2-a]pyridin-3-yl-pyrimidin-2-yl)-(2,2,2-trifluoro-ethyl)-amino]-benzamide]"
0.053,13.1,"Cc1nc2ccccn2c1-c1ccnc(Nc2ccc(C(=O)Nc3ccccc3N)cc2)c1 [Example 54, N-(2-Amino-phenyl)-4-[4-(2-methyl-imidazo[1,2-a]pyridin-3-yl)-pyridin-2-ylamino]-benzamide]"
0.526,–,"Cc1nc2ccccn2c1-c1ccnc(Nc2cnc(C(=O)NO)cn2)c1 [Example 76, N-hydroxy-5-(4-(2-methylimidazo[1,2-a]pyridin-3-yl)pyridin-2-ylamino)pyrazine-2-carboxamide]"
0.669,–,"Cc1nc2ccccn2c1-c1ccnc(Nc2nnc(C(=O)NO)s2)c1 [Example 75, N-hydroxy-5-(4-(2-methylimidazo[1,2-a]pyridin-3-yl)pyridin-2-ylamino)-1,3,4-thiadiazole-2-carboxamide]"
0.18,–,"COc1ccn2c(-c3ccnc(Nc4ccc(C(=O)NO)cn4)c3)c(C)nc2c1 [Example 77, N-hydroxy-6-(4-(7-methoxy-2-methylimidazo[1,2-a]pyridin-3-yl)pyridin-2-ylamino)nicotinamide]"
> 50,–,"Cc1nc2ccccn2c1-c1ccnc(Nc2cccc(C(=O)Nc3ccccc3N)c2)n1 [Example 4, N-(2-Amino-phenyl)-3-[4-(2-methyl-imidazo[1,2-a]pyridin-3-yl)-pyrimidin-2-ylamino]-benzamide]"

Compound,IC50 (HDAC 1) [µM],IC50 (CDK2) [µM]
"N-hydroxy-2-(4-(2-methylimidazo[1,2-a]pyridin-3-yl)pyrimidin-2-ylamino)oxazole-5-carboxamide [Example 72]",0.4,> 40

# Source: patent publication US8124764B2, “Fused heterocyclyc inhibitor compounds” (Gilead Sciences, Inc., priority 2008, dated 2012)
